Source: article PMC12526720, “Hydralazine inhibits cysteamine dioxygenase to treat preeclampsia and senesce glioblastoma” (Science Advances, 2024)
Counter-ions that a name gives are not always drawn.

What was measured:
[1] = target: T1, 2-aminoethanethiol dioxygenase (ADO) (Homo sapiens, UniProt Q96SZ5); assay: O2 consumption (oxygen electrode) with purified Fe(II)•ADO, global fit; EPR of Co(II)•ADO also supports binding; assay type: biochemical
T1 construct: WT hADO (NP_116193.2), His6 tag cleaved with TEV
T1 sequence (Q96SZ5 1-270): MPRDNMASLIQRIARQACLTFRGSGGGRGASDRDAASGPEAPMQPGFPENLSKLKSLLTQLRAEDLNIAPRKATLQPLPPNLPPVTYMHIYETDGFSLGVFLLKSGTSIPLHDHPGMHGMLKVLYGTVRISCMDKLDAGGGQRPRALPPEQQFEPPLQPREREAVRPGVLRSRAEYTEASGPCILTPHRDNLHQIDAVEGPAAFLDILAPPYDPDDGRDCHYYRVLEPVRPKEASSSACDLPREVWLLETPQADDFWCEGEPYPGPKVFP

[2] = target: T2, mouse ADO (Mus musculus, UniProt Q6PDY2); assay: quantitative chemoproteomics in RAW […] and Neuro 2a cells, and in mouse heart and brain; assay type: cell-based
T2 construct: endogenous
T2 sequence (Q6PDY2 1-256): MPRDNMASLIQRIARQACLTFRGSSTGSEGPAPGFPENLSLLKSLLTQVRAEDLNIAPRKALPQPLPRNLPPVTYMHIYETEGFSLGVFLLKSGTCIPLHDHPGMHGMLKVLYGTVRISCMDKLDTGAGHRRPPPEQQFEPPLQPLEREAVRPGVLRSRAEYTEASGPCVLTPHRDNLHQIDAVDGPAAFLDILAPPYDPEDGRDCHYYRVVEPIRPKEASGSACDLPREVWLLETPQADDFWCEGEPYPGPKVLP

Structure (SMILES)	Ki [1] [nM]	quantitative chemoproteomics in RAW 264.7 and Neuro 2a cells, and in mouse heart [2]
NNc1nncc2ccccc12 [HYZ, Hydralazine]	2480 ± 420	–
C#CCOCc1ccc2c(NN)nncc2c1 [HYZyne, 1-hydrazineyl-6-((prop-2-yn-1-yloxy)methyl)phthalazine hydrochloride]	–	mouse ADO was also identified as a primary, high-reactivity, and high-stoichiometry target of HYZyne in both mouse cell types
